The values that follow come from article PMC12627627 (Nature Communications, 2025).

One data set deals with T1, RyR1 W881A (Oryctolagus cuniculus, UniProt P11716, W882A).
T1 construct: expressed in transfected cells
In words: Time-lapse [Ca2+]ER measurement, HEK293 cells expressing RyR1 W881A. As to conditions: 4 mM caffeine; for ER luminal [Ca2+] change (F/F0): Fig. 5H source data, RyR1-W881A, single replicates. Format: cell-based. Here is the method: HEK293 cells stably expressing R-CEPIA1er and RyRs (WT RyR1, RyR1-W881A, RyR1-W995A, RyR1-R2163C, and WT RyR2)[26],[27] were used in this study. Briefly, the cells were seeded at a density of 2 × 10⁴ cells/well in a 96-well black, clear-bottom plate (Corning). Doxycycline (2 µg/mL) was added 12 h after seeding, and the medium was replaced 24 h later with HEPES-buffered Krebs solution (5 mM HEPES, pH 7.4; 140 mM NaCl; 5 mM KCl; 2 mM CaCl₂; 1 mM MgCl₂; and 11 mM glucose). Fluorescence measurements were conducted using a FlexStation 3 fluorometer (Molecular Devices) at 37 °C. The R-CEPIA1er was excited at 560 nm, emitted at 610 nm, and captured every 10 seconds over 300 seconds. Different concentrations of compound, dissolved in buffer containing 1% DMSO, were added 100 s after recording began. The fluorescence changes (F/F₀) were calculated by dividing the average fluorescence of the last 100 seconds (F) by that of the first 100 seconds (F₀). All measurements were performed in triplicate.

The target of data set [1] is T2, WT RyR1 (Oryctolagus cuniculus, UniProt P11716).
T2 construct: expressed in transfected cells
In words: Ca2+-dependent [3H]ryanodine binding, microsomes. Particulars: for [3H]ryanodine binding (B/Bmax): Fig. 5C source data, RI-2 100 μM, single replicates. The data set is classed as biochemical. Here is the method: The assay was performed as previously described[44],[45] with minor modifications. Briefly, microsomes from HEK293 cells stably expressing WT RyR1 were incubated with 5 nM [³H]ryanodine for 5 h at 25 °C in a medium containing 0.17 M NaCl, 20 mM MOPSO (pH 7.0), 2 mM dithiothreitol, 1 mM β,γ-methyleneadenosine 5′-triphosphate, and free Ca²⁺ buffered with 10 mM EGTA at varying concentrations. Free Ca²⁺ levels were calculated using WEBMAXC […][46]. Protein-bound [³H]Ryanodine (B) was isolated by filtration through polyethyleneimine-treated GF/B filters (Whatman) using a Micro 96 Cell Harvester (Skatron Instruments). Nonspecific binding was assessed by adding 20 µM unlabeled ryanodine. The maximum binding capacity of [³H]ryanodine (Bmax) was determined via Scatchard plot analysis with various concentrations (3–20 nM) of [³H]ryanodine in a high-salt medium containing 1 M NaCl. The resulting B/Bmax values represent the average activity of the cells.

Another data set has as its target T3, R12 domain of RyR2 (Homo sapiens, UniProt Q92736).
T3 construct: RyR1 854–1054, RyR2 865–1065, RyR3 853–1053; made in house; host or cells: E. coli BL21 (DE3)
T3 sequence (Q92736 865-1065): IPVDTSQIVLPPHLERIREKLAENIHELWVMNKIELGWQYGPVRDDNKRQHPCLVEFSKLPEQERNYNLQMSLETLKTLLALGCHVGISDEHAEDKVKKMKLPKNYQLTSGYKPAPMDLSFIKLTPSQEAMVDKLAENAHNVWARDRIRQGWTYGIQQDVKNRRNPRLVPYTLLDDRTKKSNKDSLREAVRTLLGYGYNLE
In words: ITC, R12 domain of RyR2. The data set is classed as binding. Particulars: absence or presence of AMP-PCP or ADP. On the procedure:
(§1) The plasmids were subsequently transformed into E. coli BL21 (DE3) cells (NEB, USA) and cultured in Luria-Bertani (LB) media at 37 °C. Protein expression was induced with 0.4 mM isopropyl β-D-thiogalactoside (IPTG) when the optical density (OD)600 reached ~0.8, followed by incubation at 18 °C for 12 h. The cells were harvested via centrifugation at 5,000 × g for 15 min at 4 °C and homogenized in Buffer A (10 mM HEPES, pH 7.4, 250 mM KCl) supplemented with 25 µg/mL DNaseI, 25 µg/mL lysozyme, 1 mM phenylmethylsulfonyl fluoride (PMSF), and 20 mM imidazole. The homogenate was centrifuged at 12,000 × g for 45 min, and the supernatant was filtered through a syringe filter (0.22 µm).
(§2) Purified R12 domain protein from the three RyR isoforms, fused with hexahistidine-tagged MBP (HMT-R12) was dialyzed overnight at 4 °C in ITC buffer (200 mM HEPES, pH 7.4, 150 mM KCl). ITC experiments were performed using a PEAQ-ITC instrument (Malvern, UK) at 25 °C with a stirring speed of 750 rpm. […] For the ternary binding experiments, 500 μM or 5 mM AMP-PCP/ADP was preincubated with both the titrants and titrates. […] The data was fit to a one-site fitting model after background buffer subtraction. The RyR1 R12 mutants were generated using a QuikChange mutagenesis kit (Stratagene) according to the manufacturer’s protocol, with primer sequences listed in Supplementary Table 3.
A general note: In ITC the heat of successive injections is recorded.

Data set [2] concerns the target T2, WT RyR1. Description: Time-lapse [Ca2+]ER measurement, HEK293 cells expressing WT RyR1. Format: cell-based. Particulars: Fig. 5H source data, 4 mM caffeine, single replicates.
Another data set addresses T4, RyR1-W995A R12 (Homo sapiens, UniProt P21817, W995A).
T4 construct: RyR1 854–1054, RyR2 865–1065, RyR3 853–1053; made in house; host or cells: E. coli BL21 (DE3)
T4 sequence (P21817 854-1054 W995A): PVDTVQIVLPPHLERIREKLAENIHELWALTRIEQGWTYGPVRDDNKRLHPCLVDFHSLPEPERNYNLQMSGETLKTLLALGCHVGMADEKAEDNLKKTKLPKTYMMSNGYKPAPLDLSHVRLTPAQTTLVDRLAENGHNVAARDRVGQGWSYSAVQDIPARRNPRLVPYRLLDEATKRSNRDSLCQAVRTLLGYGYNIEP
In words: ITC, RyR1 R12 W995A. The data set is classed as binding. Here is the method: as §1, §2

On the set-up of data set [3]: method as in PMID 1729917, PMID 2790379. As to conditions: water-soluble analog compared with DAN; cited from earlier work.

Several values for one entry are separate records, joined by “and”; a condition that tells them apart may be missing. Equal values may be shown once.

With `O=C(C[C@@H](NCCCO)C(=O)O)Nc1ccc2ccccc2c1` [RI-2], the “ER luminal [Ca2+] change (F/F0)” value on RyR1 W881A (RI-2 0.1 uM) is 0.9939 and 0.9815 and 1.025; at RyR1 W881A (RI-2 0.3 uM), 0.9808 and 0.9609 and 0.9633; at RyR1 W881A (RI-2 1 uM), 0.959 and 0.9789 and 1.039; on RyR1 W881A (RI-2 3 uM), 0.968 and 1.003 and 1.025; on RyR1 W881A (RI-2 10 uM) it was 0.9988 and 0.9974 and 1.012; on RyR1 W881A (RI-2 30 uM), 1.035 and 0.9972 and 1.041. In addition, the “ER luminal [Ca2+] change (F/F0)” value is 0.9975 and 1.115 and 0.9708 at RyR1 W881A (RI-2 100 uM); 0.9624 and 0.9803 and 0.9793 at WT RyR1 [2] (RI-2 0.1 uM); 0.9865 and 0.9725 and 0.9809 at WT RyR1 [2] (RI-2 0.3 uM); 1.001 and 1.0002 and 0.9956 at WT RyR1 [2] (RI-2 1 uM); 1.043 and 1.036 and 1.039 on WT RyR1 [2] (RI-2 3 uM); 1.092 and 1.122 and 1.066 on WT RyR1 [2] (RI-2 10 uM). Further, the “ER luminal [Ca2+] change (F/F0)” value on WT RyR1 [2] (RI-2 30 uM) is 1.229 and 1.248 and 1.218; at WT RyR1 [2] (RI-2 100 uM), 1.681 and 1.622 and 1.659. For the same compound, the “inhibitory effect in time-lapse ER Ca2+ measurements” value against RyR1 W881A (RyR1 W881A) is recorded as “completely lost”. In addition, the “effect on Ca2+-dependent [3H]ryanodine binding” value at WT RyR1 [1] (100 uM RI-2) is on record as “inhibitory effect”. The “[3H]ryanodine binding (B/Bmax)” value on WT RyR1 [1] (pCa 2.04) was 0.002952 (2×) and 0.002725 and -0.000227; at WT RyR1 [1] (pCa 2.67), 0.005451 and 0.006359 and 0.002952 and 0.002725; on WT RyR1 [1] (pCa 3.39), 0.01453 and 0.0134 and 0.008857 (2×); at WT RyR1 [1] (pCa 4.03), 0.02816 and 0.03452 and 0.02475 and 0.02703; on WT RyR1 [1] (pCa 4.66), 0.04474 and 0.04315 and 0.03702 and 0.03429; on WT RyR1 [1] (pCa 5.03) it was 0.04565 and 0.04292 and 0.03884 and 0.03702. Also, the “[3H]ryanodine binding (B/Bmax)” value was 0.0293 and 0.03838 and 0.02362 and 0.0243 on WT RyR1 [1] (pCa 5.42); 0.009312 and 0.01272 and 0.009084 and 0.003634 at WT RyR1 [1] (pCa 6); 0.005678 and 0.003861 and -0.000454 and 0.00159 at WT RyR1 [1] (pCa 6.54); 0.004088 and 0.006813 and 0.002044 and 0.0009084 on WT RyR1 [1] (pCa 6.97); 0.001136 and 0.002044 (2×) and 0.001363 on WT RyR1 [1] (pCa 7.49). Besides, on R12 domain of RyR2, the “binding to RyR2 R12 domain by ITC” value is given as “no detectable binding”.
On to `O=C1CN(/N=C/c2ncc(-c3ccc(Br)cc3)o2)C(=O)N1` [AZU, Azumolene], for which the “binding to RyR2 R12 domain by ITC” value on R12 domain of RyR2 is listed as “neither DAN nor AZU exhibited detectable binding”. Besides, the results for the “binding to RyR1 R12 W995A by ITC” value at RyR1-W995A R12 (in the presence of AMP-PCP or ADP) and on RyR1-W995A R12 (no nucleotide) were “can no longer be detected” and “completely abolishes”, respectively. In data set [3], the “solubility relative to DAN” value is recorded as “approximately 30 fold”.
